Values quoted from earlier work as cited in paper PMC6838683, “Discovery of Human Signaling Systems: Pairing Peptides to G Protein-Coupled Receptors” (Cell, 2019).
Read-outs that look alike come from different tables or passages of the source. Residues, ends and D or L forms follow the SMILES beside them.

Target: human GPCRs
Design: method as in Guide to Pharmacology database
Conditions: max reported value, ref Guide to Pharmacology database, cited from earlier work
Source text: Supplement mmc1.xlsx, sheet "HumanGPCRLigands" | column: pKi_value; pKd_value; pEC50_value; pIC50_value

[1] = receptor 5ht1b_human (HTR1B, P28222)
[2] = receptor 5ht1f_human (HTR1F, P30939)
[3] = receptor 5ht2a_human (HTR2A, P28223)
[4] = receptor 5ht4r_human (HTR4, Q13639)
[5] = receptor OXER1 (oxer1_human, Q8TDS5)
[6] = receptor LTB4R2 (lt4r2_human, Q9NPC1)
[7] = receptor gpbar_human (GPBAR1), Bile acid receptors
[8] = receptor gpr63_human (GPR63), Class A orphans

For `NCCc1c[nH]c2ccc(O)cc12` [Peptide 5-hydroxytryptamine], which pKi_value (receptor 5ht1a_human (HTR1A, P08908)) is on record?
The pKi_value was 9.7.

What about the pKd_value [1] of the same compound?
The pKd_value was 8.4.

What about the pKi_value [1] of the same compound?
Its pKi_value is 9.

What about the pKi_value (receptor 5ht1d_human (HTR1D, P28221)) of the same compound?
The pKi_value was 9.

And the pKi_value (receptor 5ht1e_human (HTR1E, P28566))?
The pKi_value was 8.2.

And the pKd_value [2]?
Its pKd_value is 8.

And the pKi_value [2]?
The pKi_value was 8.

What about the pKd_value [3] of the same compound?
The pKd_value was 8.9.

What about the pKi_value [3] of the same compound?
Its pKi_value is 8.4.

What about the pKi_value (receptor 5ht2b_human (HTR2B, P41595)) of the same compound?
The pKi_value was 8.4.

And the pKi_value (receptor 5ht2c_human (HTR2C, P28335))?
Its pKi_value is 8.6.

What about the pKd_value [4] of the same compound?
The pKd_value was 8.8.

What about the pKi_value [4] of the same compound?
Its pKi_value is 7.

What about the pKi_value (receptor 5ht5a_human (HTR5A, P47898)) of the same compound?
Its pKi_value is 6.9.

What about the pKi_value (receptor 5ht6r_human (HTR6, P50406)) of the same compound?
Its pKi_value is 7.5.

And the pKi_value (receptor 5ht7r_human (HTR7, P34969))?
Its pKi_value is 9.6.

For `CCCCC[C@H](O)/C=C/C=C\C/C=C\C=C\C(=O)CCCC(=O)O` [Peptide 5-oxo-15-HETE], which pEC50_value [5] is on record?
Its pEC50_value is 7.7.

For `CCCCC/C=C\C/C=C\C/C=C\C=C\C(=O)CCCC(=O)O` [Peptide 5-oxo-ETE], which pEC50_value [5] is on record?
The pEC50_value was 8.5.

For `CCCCCCCCC/C=C\C=C\C(=O)CCCC(=O)O` [Peptide 5-oxo-ODE], which pEC50_value [5] is on record?
Its pEC50_value is 8.

For `CCCCC/C=C\C/C=C\C/C=C\C=C\[C@@H](O)CCCC(=O)O` [Peptide 5S-HETE], which pEC50_value [5] is on record?
The pEC50_value was 7.2.

Which pEC50_value [5] does the source give for `CCCCC/C=C\C/C=C\C/C=C\C=C\[C@H](CCCC(=O)O)OO` [Peptide 5S-HPETE] here?
The pEC50_value was 7.

For `CCCCC/C=C\C[C@@H](O)/C=C/C=C\C/C=C\CCCC(=O)O` [Peptide 12R-HETE], which pKi_value (receptor LTB4R (lt4r1_human, Q15722)) is on record?
The pKi_value was 7.5.

For `CCCCC/C=C\C[C@H](O)/C=C/C=C\C/C=C\CCCC(=O)O` [Peptide 12S-HETE], which pEC50_value [6] is on record?
The pEC50_value was 7.5.

Which pEC50_value [6] does the source give for `CCCCC[C@H](O)/C=C/C=C\C/C=C\C/C=C\CCCC(=O)O` [Peptide 15S-HETE] here?
The pEC50_value was 7.5.

For `Nc1ncnc2c1ncn2[C@@H]1O[C@H](CO)[C@@H](O)[C@H]1O` [adenosine], which pKi_value (receptor aa1r_human (ADORA1), Adenosine receptors) is on record?
Its pKi_value is 7.

And the pKi_value (receptor aa2ar_human (ADORA2A), Adenosine receptors)?
The pKi_value was 6.5.

What about the pKi_value (receptor aa2br_human (ADORA2B), Adenosine receptors) of the same compound?
The pKi_value was 4.8.

And the pKi_value (receptor aa3r_human (ADORA3), Adenosine receptors)?
The pKi_value was 6.5.

With `CCCCC/C=C\C/C=C\C/C=C\C/C=C\CCCC(=O)NCCO` [anandamide] as the compound, how does the pKi_value (receptor CNR1 (cnr1_human, P21554)) read?
The pKi_value was 7.

And the pKi_value (receptor CNR2 (cnr2_human, P34972))?
The pKi_value was 6.4.

Which results are given for `CC[C@H](C)[C@H](NC(=O)[C@H](Cc1ccc(O)cc1)NC(=O)[C@@H](NC(=O)[C@@H](N)CCCNC(=N)N)C(C)C)C(=O)N[C@@H](Cc1cnc[nH]1)C(=O)N1CCC[C@H]1C(=O)N[C@@H](Cc1ccccc1)C(=O)O` [angiotensin III]?
pIC50_value (receptor agtr1_human (AGTR1, P30556)): 8.5; pKd_value (receptor agtr2_human (AGTR2, P50052)): 10.4

For `CC/C=C\C[C@@H](O)/C=C/C=C\C=C\C=C\[C@@H](O)[C@@H](O)C/C=C\CCC(=O)O` [aspirin-triggered resolvin D1], which pEC50_value (receptor fpr2_human (FPR2, P25090)) is on record?
Its pEC50_value is 11.1.

For `NC(N)=NCCC[C@H](NC(=O)[C@H](Cc1ccccc1)NC(=O)[C@@H]1CCCN1C(=O)[C@H](CO)NC(=O)[C@H](Cc1ccccc1)NC(=O)CNC(=O)[C@@H]1CCCN1C(=O)[C@@H]1CCCN1C(=O)[C@@H](N)CCCN=C(N)N)C(=O)O` [bradykinin] (H-RPPGFSPFR-OH), which pKi_value (receptor bkrb1_human (BDKRB1, P46663)) is on record?
The pKi_value was 4.

And the pIC50_value (receptor bkrb2_human (BDKRB2, P30411))?
Its pIC50_value is 9.3.

For `C[C@H](CCC(=O)O)[C@H]1CC[C@H]2[C@@H]3[C@H](O)C[C@@H]4C[C@H](O)CC[C@]4(C)[C@H]3CC[C@]12C` [chenodeoxycholic acid], which pEC50_value [7] is on record?
Its pEC50_value is 5.4.

With `C[C@H](CCC(=O)O)[C@H]1CC[C@H]2[C@@H]3[C@H](O)C[C@@H]4C[C@H](O)CC[C@]4(C)[C@H]3C[C@H](O)[C@]12C` [cholic acid] as the compound, how does the pEC50_value [7] read?
The pEC50_value was 5.

With `C[C@H](CCC(=O)O)[C@H]1CC[C@H]2[C@@H]3CC[C@@H]4C[C@H](O)CC[C@]4(C)[C@H]3C[C@H](O)[C@]12C` [deoxycholic acid] as the compound, how does the pEC50_value [7] read?
The pEC50_value was 6.2.

With `CCCCCCCCCCCCCCC[C@@H](O)[C@@H](N)COP(=O)(O)O` [dihydrosphingosine 1-phosphate] as the compound, how does the pEC50_value [8] read?
The pEC50_value was 6.2.

For `CCCCCCCC/C=C\CCCCCCCC(=O)OC[C@H](COP(=O)(O)O)OC(=O)CCCCCCC/C=C\CCCCCCCC` [dioleoylphosphatidic acid], which pEC50_value [8] is on record?
Its pEC50_value is 6.3.
